# Measured values reported in ChEMBL document CHEMBL5042504 (J Med Chem, 2022).
# Calls of active or inactive are those of the source. The calls are words filed in the database; no cut-off is given here.
# What was measured:
# [1] = Plasma concentration in BALB/c mouse xenografted with human AML MV4-11 cells at 4 mg/kg, po; type: ADME, organism-based; settings: in vivo
# [2] = Antitumor activity against human MV4-11 cells xenografted in BALB/c mouse assessed as tumor growth inhibition at 2 to 4 mg/kg, po administered for 24 days; type: functional; settings: dose 2-4 mg/kg, time 24 day
# [3] = Drug uptake in BALB/c mouse xenografted with human AML MV4-11 cells assessed as tumor tissue at 4 mg/kg ip measured after 0.5 to 6 hrs by LC-MS/MS; type: ADME, organism-based; settings: in vivo, time 0.5-6 hrs
# [4] = Toxicity in BALB/c mouse assessed as induction of pathological changes in spleen by H and E staining based analysis; type: tissue-based; settings: in vivo
# [5] = Drug distribution in BALB/c mouse gut measured at 4 mg/kg, po or ip after 0.5 hrs after 0.5 hrs; type: ADME, organism-based; settings: in vivo
# [6] = test system: MV4-11; test: Antitumor activity against human MV4-11 cells xenografted in BALB/c mouse assessed as inhibition of tumor growth at single administration for 4 mg/kg, po incubated for 0.5 to 8 hrs; type: functional, organism-based; settings: time 0.5-8 hrs
# [7] = Half life in CD-1 mouse at 5 mg/kg, iv measured upto 24 hrs; type: ADME, organism-based; settings: in vivo
# [8] = test system: MV4-11; test: Cell cycle arrest in human […] MV4-11 cells assessed as accumulation at G2/M-phase at 500 nM measured after 24 hrs realtive to control; type: functional, cell-based
# [9] = Drug distribution in BALB/c mouse gut measured at 4 mg/kg, po or ip after 2 to 8 hrs after 0.5 hrs; type: ADME, organism-based; settings: in vivo, time 2-8 hrs
# [10] = Toxicity in BALB/c mouse xenografted with MV4-11 cells assessed as body weight loss
# [11] = Cmax in CD-1 mouse at 20 mg/kg, po measured upto 24 hrs; type: ADME, organism-based; parameters: route oral, dose 20 mg/kg, time <=24; settings: CD-1, mouse, in vivo, read-out: Cmax
# [12] = test system: HL-60; test: Induction of apoptosis in human p53 null HL-60 cells assessed as […] at 500 nM measured after 24 hrs by FITC Annexin V/propidium iodide staining based flow cytometry (reference value: 20.55%); type: functional; settings: read-out: Activity
# [13] = test system: MV4-11; test: Antitumor activity against human MV4-11 cells xenografted in balb/c mouse assessed as accumulation of AcHH3 protein level at 4 mg/kg, po measured after 8 hrs; type: functional, organism-based
# [14] = test system: MV4-11; test: Antitumor activity against human MV4-11 cells xenografted in balb/c mouse assessed as accumulation of AcHH4 protein level at 4 mg/kg, po measured after 8 hrs; type: functional, organism-based
# [15] = Toxicity in BALB/c mouse assessed as induction of pathological changes in liver by H and E staining based analysis; type: tissue-based; settings: in vivo
# [16] = Antitumor activity against human MV4-11 cells xenografted in BALB/c mouse assessed as growth inhibition at 2 to 4 mg/kg, po ad; type: functional; settings: dose 2-4 mg/kg, time 24 day
# [17] = Drug distribution in BALB/c mouse kidney measured at 4 mg/kg, po or ip after 2 to 8 hrs after 0.5 hrs; type: ADME, organism-based; settings: in vivo, time 2-8 hrs
# [18] = test system: MV4-11; test: Induction of apoptosis in human wt-p53 MV4-11 cells assessed as apoptotic cells at 200 nM measured after 24 hrs by FITC Annexin V/propidium iodide staining based flow cytometry (reference value: 9.14%); type: functional
# [19] = Drug distribution in BALB/c mouse spleen measured at 4 mg/kg, po or ip after 2 to 8 hrs after 0.5 hrs; type: ADME, organism-based; settings: in vivo, time 2-8 hrs
# [20] = Drug distribution in tumor of BALB/c mouse xenografted with human MV4-11 cells assessed as measured after 2 hrs; type: ADME; settings: read-out: Ct
# [21] = Drug distribution in BALB/c mouse liver measured at 4 mg/kg, po or ip after 2 to 8 hrs after 0.5 hrs; type: ADME, organism-based; settings: in vivo, time 2-8 hrs
# [22] = test system: MV4-11; test: Induction of apoptosis in human wt-p53 MV4-11 cells assessed as apoptotic cells at 500 nM measured after 24 hrs by FITC Annexin V/propidium iodide staining based flow cytometry (reference value: 9.14%); type: functional
# [23] = Drug distribution in BALB/c mouse kidney measured at 4 mg/kg, po or ip after 0.5 hrs after 0.5 hrs; type: ADME, organism-based; settings: in vivo
# [24] = biological target: Histone deacetylase 3 (Homo sapiens, UniProt O15379); test: Inhibition of HDAC3(unknown origin) preincubated upto 2 hrs by fluorescence based assay; settings: time hrs <=2
# Sequence of Histone deacetylase 3 (O15379 whole entry): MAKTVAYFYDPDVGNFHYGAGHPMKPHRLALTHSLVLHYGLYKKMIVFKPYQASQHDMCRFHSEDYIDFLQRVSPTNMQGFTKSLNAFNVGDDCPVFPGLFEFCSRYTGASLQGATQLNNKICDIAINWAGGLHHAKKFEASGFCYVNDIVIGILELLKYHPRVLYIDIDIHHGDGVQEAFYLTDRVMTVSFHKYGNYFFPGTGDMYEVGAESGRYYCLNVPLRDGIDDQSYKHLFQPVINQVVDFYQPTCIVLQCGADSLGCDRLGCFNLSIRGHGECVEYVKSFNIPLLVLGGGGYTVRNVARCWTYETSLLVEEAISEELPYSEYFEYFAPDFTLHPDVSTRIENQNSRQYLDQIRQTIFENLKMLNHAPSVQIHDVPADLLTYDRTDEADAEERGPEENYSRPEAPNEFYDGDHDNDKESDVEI
# [25] = Oral bioavailability in CD-1 mouse at 20 mg/kg measured upto 24 hrs; type: ADME, organism-based; settings: in vivo
# [26] = Drug distribution in BALB/c mouse brain measured at 4 mg/kg, po or ip after 0.5 hrs after 0.5 hrs; type: ADME, organism-based; settings: in vivo
# [27] = Drug distribution in BALB/c mouse heart measured at 4 mg/kg, po or ip after 0.5 hrs after 0.5 hrs; type: ADME, organism-based; settings: in vivo
# [28] = test system: HL-60; test: Cell cycle arrest in human […] HL60 cells assessed as accumulation at G2/M-phase at 200 nM measured after 24 hrs realtive to control; type: functional, cell-based
# [29] = Half life in CD-1 mouse at 20 mg/kg, po measured upto 24 hrs; type: ADME, organism-based; settings: in vivo
# [30] = Drug distribution in BALB/c mouse liver measured at 4 mg/kg, po or ip after 0.5 hrs after 0.5 hrs; type: ADME, organism-based; settings: in vivo
# [31] = test system: HL-60; test: Induction of apoptosis in human p53 null HL-60 cells assessed as […] at 200 nM measured after 24 hrs by FITC Annexin V/propidium iodide staining based flow cytometry (reference value: 20.55%); type: functional; settings: read-out: Activity
# [32] = biological target: T1, Histone deacetylase 1 (Homo sapiens, UniProt Q13547); test: Mixed type inhibition of human HDAC1 (unknown origin) by Lineweaver-Burk plot analysis
# T1 sequence (Q13547 whole entry): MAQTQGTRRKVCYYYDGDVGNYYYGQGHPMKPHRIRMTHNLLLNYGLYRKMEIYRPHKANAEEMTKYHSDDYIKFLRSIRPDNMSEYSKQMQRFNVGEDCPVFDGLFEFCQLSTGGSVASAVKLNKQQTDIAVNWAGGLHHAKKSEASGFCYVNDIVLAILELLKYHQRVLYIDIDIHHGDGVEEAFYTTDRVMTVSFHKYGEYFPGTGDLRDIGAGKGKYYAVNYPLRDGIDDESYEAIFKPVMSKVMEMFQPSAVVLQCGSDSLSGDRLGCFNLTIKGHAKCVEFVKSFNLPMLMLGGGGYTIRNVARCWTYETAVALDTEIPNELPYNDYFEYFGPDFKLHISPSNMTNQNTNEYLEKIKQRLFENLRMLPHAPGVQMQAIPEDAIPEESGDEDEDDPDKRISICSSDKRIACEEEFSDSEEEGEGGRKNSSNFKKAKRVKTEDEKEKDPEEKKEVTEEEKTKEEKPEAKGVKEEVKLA
# [33] = test system: MV4-11; test: Antitumor activity against human MV4-11 cells xenografted in balb/c mouse assessed as accumulation of AcHH3 protein level at 4 mg/kg, po measured after 2 hrs; type: functional, organism-based
# [34] = biological target: T1, Histone deacetylase 1; test: Inhibition of HDAC1 (unknown origin)preincubated upto 2 hrs by fluorescence based assay; settings: time hrs <=2
# [35] = Drug distribution in BALB/c mouse heart measured at 4 mg/kg, po or ip after 2 to 8 hrs after 0.5 hrs; type: ADME, organism-based; settings: in vivo, time 2-8 hrs
# [36] = biological target: Histone deacetylase 2 (Homo sapiens, UniProt Q92769); test: Inhibition of human recombinant HDAC2 using Boc-Lys(acetyl)-AMC substrate incubated for 2 hrs by fluorescence based assay
# Sequence of Histone deacetylase 2 (Q92769 whole entry): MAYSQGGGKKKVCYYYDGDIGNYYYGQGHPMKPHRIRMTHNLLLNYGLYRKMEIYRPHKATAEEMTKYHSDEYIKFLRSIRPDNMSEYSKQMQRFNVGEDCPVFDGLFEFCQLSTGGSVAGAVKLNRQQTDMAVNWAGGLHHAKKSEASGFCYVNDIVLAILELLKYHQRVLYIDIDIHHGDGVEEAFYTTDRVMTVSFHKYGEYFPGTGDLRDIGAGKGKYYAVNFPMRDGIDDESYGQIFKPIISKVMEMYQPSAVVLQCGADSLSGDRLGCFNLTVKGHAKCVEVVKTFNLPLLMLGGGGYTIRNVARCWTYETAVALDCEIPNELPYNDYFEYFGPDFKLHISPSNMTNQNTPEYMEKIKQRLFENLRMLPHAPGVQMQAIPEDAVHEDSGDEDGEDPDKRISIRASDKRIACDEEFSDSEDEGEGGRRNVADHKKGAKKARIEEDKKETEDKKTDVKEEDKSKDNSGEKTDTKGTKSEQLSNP
# [37] = Drug metabolism in BALB/c mouse liver assessed as metabolized compound; type: ADME, tissue-based
# [38] = Drug distribution in tumor of BALB/c mouse xenografted with human MV4-11 cells assessed as measured after 8 hrs; type: ADME; settings: read-out: Drug uptake
# [39] = Plasma concentration in BALB/c mouse xenografted with human AML MV4-11 cells at 4 mg/kg, ip; type: ADME, organism-based; settings: in vivo
# [40] = Cmax in CD-1 mouse at 5 mg/kg, iv measured upto 24 hrs; type: ADME, organism-based; parameters: route intravenous, dose 5 mg/kg, time <=24; settings: in vivo
# [41] = test system: MV4-11; test: Cell cycle arrest in human wt-p53 MV4-11 cells assessed as accumulation at G2/M-phase at 200 nM measured after 24 hrs realtive to control; type: functional, cell-based
# [42] = Drug distribution in BALB/c mouse spleen measured at 4 mg/kg, po or ip after 0.5 hrs; type: ADME, organism-based; settings: in vivo
# [43] = test system: MV4-11; test: cells; settings: Homo sapiens, MV4-11, 48 h
# Description: Antiproliferative activity against human MV4-11 AML cells assessed as cell viability measured after 48 hrs by multiplate reader method
smiles,measurement,setting,value
CCCNNC(=O)c1ccc(CNC(=O)c2cc3ccccc3[nH]2)cc1,Drug uptake,[1],Active
same,TGI,[2],78.9%
same,Drug uptake,[3],Active
same,Activity,[4],Non-Toxic
same,Drug uptake,[5],Active
same,Activity,[6],Active
same,half-life,[7],6.75 h
same,Activity,[8],Active
same,Drug uptake,[9],Active
same,Activity,[10],Non-Toxic
same,Cmax,[11],38800 ng/mL
same,viability at 0.5 µM,[12],44.8%
same,Activity,[13],Active
same,Activity,[14],Active
same,Activity,[15],Non-Toxic
same,T/C,[16],22.2%
same,Drug uptake,[17],Active
same,Activity,[18],71.2%
same,Drug uptake,[19],Active
same,concentration at 2 h,[20],882 ng/g
same,Drug uptake,[21],Active
same,Activity,[22],88.1%
same,Drug uptake,[23],Active
same,Activity,[24],Active
same,F,[25],112%
same,Drug uptake,[26],Active
same,Drug uptake,[27],Active
same,Activity,[28],Active
same,half-life,[29],2.58 h
same,Drug uptake,[30],Active
same,viability at 0.2 µM,[31],32.6%
same,IC50,[32],1.5 nM
same,Activity,[33],Active
same,Activity,[34],Active
same,Drug uptake,[35],Active
same,IC50,[36],18.5 nM
same,Drug metabolism,[37],Metabolite_Detected
same,concentration at 8 h,[38],151 ng/g
same,Drug uptake,[39],Active
same,Cmax,[40],21600 ng/mL
same,Activity,[41],Active
same,Drug uptake,[42],Active
CCCNNC(=O)c1ccc(CNC(=O)/C=C/c2ccccc2)cc1,IC50,[43],36.4 nM
